Values after ≈ are worked out from the molar mass of the structure shown. Where two headings read alike, the source gives them in different places. *1 amine or outer side, *2 acyl side, *3 side chain or, on linkers, in order; H or OH if unused. Where a SMILES comes first, the peptide text is derived from it. Bridges are numbered along the chain shown (N, C = ends). [ ]: non-standard residue; d: D form. The star is where a group is joined. Phe(3,5-F2) = N[C@@H](Cc1cc(F)cc(F)c1)C(=O)O; Pro(4S-Me) = C[C@@H]1CN[C@H](C(=O)O)C1; NH(4-Et-phenyl) = CCc1ccc(N*)cc1; aThr = C[C@H](O)[C@H](N)C(=O)O; Pip = O=C(O)[C@@H]1CCCCN1; CO = O=C([*:1])[*:2]
How the values were obtained:
S. aureus ClpP (Sa-ClpP) = molecular target: T1, S. aureus ClpP (Sa-ClpP) (Staphylococcus aureus, UniProt Q2G036); test: ClpP activation, casein-BODIPY digestion assay (first described method); format: biochemical; settings: first described ClpP activation assay (**); 10 μM saClpP, 25 μg/ml BODIPY FL casein, 37° C.; read-out: ClpP Activation EC50
T1 construct: made in house; host or cells: E. coli BL21 (DE3)
T1 sequence (Q2G036 whole entry): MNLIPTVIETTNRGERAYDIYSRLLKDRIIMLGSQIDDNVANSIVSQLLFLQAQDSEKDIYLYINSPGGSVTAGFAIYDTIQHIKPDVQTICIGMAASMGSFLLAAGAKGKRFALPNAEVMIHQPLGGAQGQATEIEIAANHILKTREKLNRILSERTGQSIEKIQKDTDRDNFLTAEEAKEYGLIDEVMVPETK
Method: The compounds were assayed in a casein digestion assay in order to determine their effect on ClpP activation. Briefly, the assay was carried out using S. aureus ClpP (“Sa-ClpP”) overexpressed in E. coli BL21 (DE3) and purified in a two-step process. Purity of the protein was assessed through SDS PAGE analysis. EC50 evaluations were conducted in triplicate in a 20 μl assay format using a method adapted from Maurizi et al. (Methods Enzymol. (1994) 244:314-331.). Each well contained 10 μM saClpP, 25 μg/ml BODIPY FL casein (Invitrogen Corporation, San Diego, Calif.), and test compound in concentrations ranging between 0-100 μM in assay buffer (50 mM Tris pH 8, 200 mM KCl, and 1 mM TCEP). The reaction took place at 37° C. Fluorescence (excitation 485 nm; emission 528 nm) was measured in five minute intervals over a 45 min period using a BioTek HT fluorescence microplate reader (BioTek Instruments, Inc., Winooski, Vt.). Velocity of each reaction was calculated and data was fit to a dose response curve using GraphPad Prism® software (GraphPad Software, Inc., La Jolla, Calif.). EC50 is the effective concentration of compound which causes 50% activation of S. aureus ClpP in the foregoing BODIPY FL casein assay.

Sa-ClpP [1] = molecular target: T2, Sa-ClpP (Staphylococcus aureus, UniProt Q2G036); test: ClpP activation, EnzCheck Protease Assay with Bodipy-FL casein (second described method); format: biochemical, S. aureus; settings: read-out: ClpP Activation EC50 (converted)
T2 construct: made in house; host or cells: E. coli BL21 (DE3)
T2 sequence (Q2G036 whole entry): as above
Method in brief: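 Sa-ClpP (2 μM in master mix) with Bodipy-FL casein (2 μM in master mix) in Tris-HCl pH 8.0, 0.01% Triton X-100, compounds in 2% DMSO, triplicate. Fluorescence (ex 485/em 520 nm) followed 30 min; degradation slopes normalized to ADEP4 and DMSO controls, EC50 and % activation by four-parameter fit.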

Sa-ClpP [2] = molecular target: T2, Sa-ClpP; test: ADEP displacement fluorescence polarization assay; format: binding, S. aureus; settings: 1 μM Sa-ClpP, 50 nM FP probe ADEP 2591; read-out: ADEP Displacement IC50
Method in brief: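 Displacement of TAMRA-labelled ADEP 2591 probe (50 nM) from 1 μM Sa-ClpP, pre-equilibrated 1 h in Tris·HCl pH 8.0 with 2% DMSO, then 120 min at room temperature with compound, triplicate. Polarization (mP) read ex 530/em 579 nm, normalised to 20 μM ADEP 2378 and DMSO controls; four-parameter fit.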

[3] = Cytotoxicity assay, CellTiter-Glo cell viability; format: cell-based; settings: African green monkey
Method in brief: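 Vero cells seeded overnight at 37 °C in DMEM with 10% FBS, then exposed to serial dilutions of compound for 72 h. Viability read by CellTiter-Glo luminescence; IC50 from duplicates, given as the range of two independent experiments.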

E. coli K12ΔtolC = test: Minimal inhibitory concentration, microbroth dilution; format: cell-based
Method in brief: (§1)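 Growth inhibition was scored visually after overnight aerobic culture at 37 °C in CLSI-style microdilution plates. Inocula contained about 10^5 cfu/mL, and compound concentrations descended in twofold steps from 200 μM.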

S. pneumoniae DAW27 = test: as above; format: cell-based
Method in brief: as §1

S. aureus USA 300 ΔClpP = test: as above; format: cell-based, Staphylococcus aureus; settings: ClpP inactivated strain
Method in brief: as §1

S. pyogenes ATCC 700294 = test: as above; format: cell-based; settings: Streptococcus pyogenes, ATCC700294, read-out: Minimal Inhibitory Concentration S. pyogenes ATCC 700294
Method in brief: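 Twofold serial dilutions in broth per CLSI M7-A7 microbroth dilution, incubated aerobically overnight at 37° C. MIC read visually as lowest concentration preventing bacterial growth.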

B. subtilis ATCC 23857 = test: as above; format: cell-based; settings: Bacillus subtilis, ATCC23857, read-out: Minimal Inhibitory Concentration B. subtilis ATCC 23857
Method in brief: as §1

E. faecails ATCC 33186 = test: as above; format: cell-based; settings: Enterococcus faecalis, ATCC33186, read-out: Minimal Inhibitory Concentration E. faecails ATCC 33186
Method in brief: as §1

S. aureus ATCC 29213 = test: as above; format: cell-based; settings: Staphylococcus aureus, ATCC29213, read-out: Minimal Inhibitory Concentration S. aureus ATCC 29213
Method in brief: as §1

[4] = Vero cells, 72 hours, read-out: Cytotoxicity IC50
[5] = Streptococcus pneumoniae, DAW27; read-out: Minimal Inhibitory Concentration S. pneumoniae DAW27
[6] = Streptococcus pneumoniae, DAW27, read-out: Minimal Inhibitory Concentration S. pneumoniae DAW27

Row | Compound | EC50 (S. aureus ClpP (Sa-ClpP)) [µM] | EC50 (Sa-ClpP [1]) [µM] | IC50 (Sa-ClpP [2]) [µM] | Minimal Inhibitory Concentration E. coli K12ΔtolC (E. coli K12ΔtolC) [µM] | IC50 at 72 h [3] [µM] | further results
1 | C[C@H]1C[C@H]2C(=O)O[C@@H](C)[C@H](NC(=O)[C@H](Cc3cc(F)cc(F)c3)NC(=O)Nc3ccc(OC(F)(F)F)cc3)C(=O)N3CCC[C@H]3C(=O)N3CCCC[C@H]3C(=O)N[C@@H](C)C(=O)N2C1 [Compound 22, (S)-3-(3,5-Difluorophenyl)-2-(3-(4-(Trifluoromethoxy)Phenyl)Ureido)-N-((2R,6S,8aS,14aS,20S,21S,23aS)-2,6,21-Trimethyl-5,8,14,19,23-Pentaoxooctadecahydro-1H,5H,14H,19H-Pyrido[2,1-I]Dipyrrolo[2,1-C:2′,1′-L][1]Oxa[4,7,10,13]Tetraazacyclohexadecin-20-Yl)Propanamide] | 3.6 ± 0.4 | 0.32 | 8.9 ± 0.3 | – | – | IC50 at 72 h [3, 4]: 52.3 ± 7.7 µM
2 | CCc1ccc(NC(=O)N[C@@H](Cc2cc(F)cc(F)c2)C(=O)N[C@@H]2C(=O)N3CCC[C@H]3C(=O)N3CCCC[C@H]3C(=O)N[C@@H](C)C(=O)N3C[C@@H](C)C[C@H]3C(=O)O[C@H]2C)cc1 [Compound 21, (S)-3-(3,5-Difluorophenyl)-2-(3-(4-Ethylphenyl)Ureido)-N-((2R,6S,8aS,14aS,20S,21S,23aS)-2,6,21-Trimethyl-5,8,14,19,23-Pentaoxooctadecahydro-1H,5H,14H,19H-Pyrido[2,1-I]Dipyrrolo[2,1-C:2′,1′-L][1]Oxa[4,7,10,13]Tetraazacyclohexadecin-20-Yl)Propanamide] ({NH(4-Et-phenyl)-CO}-[Phe(3,5-F2)][aThr]P[Pip]A[Pro(4S-Me)]; ester 2-C) | 1.1 ± 0.3 | 0.33 | 7.3 ± 0.3 | – | – | IC50 at 72 h ([3]; Vero kidney epithelial cells (ATCC CCL-81), Vero cells, 72 hours, read-out: Cytotoxicity IC50): 68.5 ± 6.6 µM
3 | CN(C)[C@@H]1C(O)=C(C(N)=O)C(=O)[C@@]2(O)C(O)=C3C(=O)c4c(O)cccc4[C@@](C)(O)[C@H]3C[C@@H]12 [Tetracycline, tetracycline, reference compound] | – | – | – | 12.5 | – | MIC (S. pneumoniae DAW27; [5]): 0.1 µM (≈ 0.0444 µg/mL)
4 | O=C(N[C@H](CO)[C@H](O)c1ccc([N+](=O)[O-])cc1)C(Cl)Cl [Chloroamphenicol, chloramphenicol, reference compound] | – | – | – | 0.78 | – | Minimal Inhibitory Concentration S. aureus USA 300 ΔClpP (S. aureus USA 300 ΔClpP): 6.3 µM
5 | CCc1cccc(NC(=O)N[C@@H](Cc2ccccc2)C(=O)N[C@H]2COC(=O)[C@@H]3C[C@@H](C)CN3C(=O)[C@H](C)NC(=O)[C@@H]3CCCCN3C(=O)[C@@H]3CCCN3C2=O)c1 [Compound 10, (S)—N-((2R,6S,8aS,14aS,20S,23aS)-2,6-Dimethyl-5,8,14,19,23-Pentaoxooctadecahydro-1H,5H,14H,19H-Pyrido[2,1-1]Dipyrrolo[2,1-C:2′,1′-L][1]Oxa[4,7,10,13]Tetraazacyclohexadecin-20-Yl)-2-(3-(3-Ethylphenyl)Ureido)-3-Phenylpropanamide] | 1.5 ± 0.6 | 0.9 ± 0.018 | 13.6 ± 1.7 | – | 74.8 ± 4.6 | –
6 | C[C@@H]1C[C@H]2C(=O)OC[C@H](NC(=O)[C@H](Cc3ccccc3)NC(=O)Nc3ccccc3)C(=O)N3CCC[C@H]3C(=O)N3CCCC[C@H]3C(=O)N[C@@H](C)C(=O)N2C1 [Compound 1, (S)—N-((2R,6S,8aS,14aS,20S,23aS)-2,6-Dimethyl-5,8,14,19,23-Pentaoxooctadecahydro-1H,5H,14H,19H-Pyrido[2,1-I]Dipyrrolo[2,1-C:2′,1′-L][1]Oxa[4,7,10,13]Tetraazacyclohexadecin-20-Yl)-3-Phenyl-2-(3-Phenylureido)Propanamide] | 3.6 ± 0.4 | – | 6.72 ± 0.4 | 200 | – | IC50 at 72 h [3, 4]: > 100 µM; MIC (S. pyogenes ATCC 700294): 1.56 µM (≈ 1.16 µg/mL); MIC (B. subtilis ATCC 23857): 1.56 µM (≈ 1.16 µg/mL); MIC (E. faecails ATCC 33186): 3.13 µM (≈ 2.33 µg/mL); MIC (S. aureus ATCC 29213): 6.25 µM (≈ 4.65 µg/mL); MIC (S. pneumoniae DAW27; [6]): 0.78 µM (≈ 0.58 µg/mL)
7 | C[C@@H]1C[C@H]2C(=O)OC[C@H](NC(=O)[C@H](Cc3ccccc3)NC(=O)Nc3ccc(OC(F)(F)F)cc3)C(=O)N3CCC[C@H]3C(=O)N3CCCC[C@H]3C(=O)N[C@@H](C)C(=O)N2C1 [Compound 2, (S)—N-((2R,6S,8aS,14aS,20S,23aS)-2,6-Dimethyl-5,8,14,19,23-Pentaoxooctadecahydro-1H,5H,14H,19H-Pyrido[2,1-I]Dipyrrolo[2,1-C:2′,1′-L][1]Oxa[4,7,10,13]Tetraazacyclohexadecin-20-Yl)-3-Phenyl-2-(3-(4-(Trifluoromethoxy)Phenyl)Ureido)Propanamide] | 2.6 ± 0.4 | 0.5 | 7.66 ± 0.3 | 12.5 | 88.3 ± 15.2 | –
8 | NC[C@H]1O[C@H](O[C@H]2[C@H](O)[C@@H](O[C@H]3O[C@H](CO)[C@@H](O)[C@H](N)[C@H]3O)[C@H](N)C[C@@H]2N)[C@H](O)[C@@H](O)[C@@H]1O [Kanamycin, kanamycin, reference compound] | – | – | – | 0.4 | – | MIC (S. pneumoniae DAW27; [5]): 25 µM (≈ 12.1 µg/mL)
9 | CCc1ccc(NC(=O)N[C@@H](Cc2ccccc2)C(=O)N[C@H]2COC(=O)[C@@H]3C[C@@H](C)CN3C(=O)[C@H](C)NC(=O)[C@@H]3CCCCN3C(=O)[C@@H]3CCCN3C2=O)cc1 [Compound 4, (S)—N-((2R,6S,8aS,14aS,20S,23aS)-2,6-Dimethyl-5,8,14,19,23-Pentaoxooctadecahydro-1H,5H,14H,19H-Pyrido[2,1-1]Dipyrrolo[2,1-C:2′,1′-L][1]Oxa[4,7,10,13]Tetraazacyclohexadecin-20-Yl)-2-(3-(4-Ethylphenyl)Ureido)-3-Phenylpropanamide] | 1.4 ± 0.1 | 5.5 | 29 ± 2.1 | 25 | 73.7 ± 8.4 | –
10 | C[C@@H]1C[C@H]2C(=O)OC[C@H](NC(=O)[C@H](Cc3ccccc3)NC(=O)Nc3ccc4ccn(C)c4c3)C(=O)N3CCC[C@H]3C(=O)N3CCCC[C@H]3C(=O)N[C@@H](C)C(=O)N2C1 [Compound 12, (S)—N-((2R,6S,8aS,14aS,20S,23aS)-2,6-Dimethyl-5,8,14,19,23-Pentaoxooctadecahydro-1H,5H,14H,19H-Pyrido[2,1-I]Dipyrrolo[2,1-C:2′,1′-L][1]Oxa[4,7,10,13]Tetraazacyclohexadecin-20-Yl)-2-(3-(1-Methyl-1H-Indol-6-Yl)Ureido)-3-Phenylpropanamide] | 3.2 ± 0.5 | – | 6.81 ± 0.4 | – | – | IC50 at 72 h [3, 4]: 90 ± 7.6 µM; MIC (S. pyogenes ATCC 700294): 0.6 µM (≈ 0.478 µg/mL); MIC (B. subtilis ATCC 23857): 2.5 µM (≈ 1.99 µg/mL); MIC (E. faecails ATCC 33186): 1.25 µM (≈ 0.996 µg/mL); MIC (S. aureus ATCC 29213): 2.5 µM (≈ 1.99 µg/mL); MIC (S. pneumoniae DAW27; [6]): 0.3 µM (≈ 0.239 µg/mL)
11 | COc1cccc(NC(=O)N[C@@H](Cc2ccccc2)C(=O)N[C@H]2COC(=O)[C@@H]3C[C@@H](C)CN3C(=O)[C@H](C)NC(=O)[C@@H]3CCCCN3C(=O)[C@@H]3CCCN3C2=O)c1 [Compound 8, (S)—N-((2R,6S,8aS,14aS,20S,23aS)-2,6-Dimethyl-5,8,14,19,23-Pentaoxooctadecahydro-1H,5H,14H,19H-Pyrido[2,1-I]Dipyrrolo[2,1-C:2′,1′-L][1]Oxa[4,7,10,13]Tetraazacyclohexadecin-20-Yl)-2-(3-(3-Methoxyphenyl)Ureido)-3-Phenylpropanamide] | 3 ± 0.4 | 1.3 | 16.3 ± 0.8 | 200 | > 100 | –

Reference: patent US9879050B2, “Substituted urea depsipeptide analogs as activators of the CLPP endopeptidase” (priority 2013, dated 2018)
